Assay results as given in the supplement of paper PMC10307832.

What was measured:
Test in all cases: relative viability (nuclei count vs DMSO), 5 days (fraction); higher = more cells survive
IDH-C35 + Foretinib = compound: Cc1ccccc1C(C(=O)NC1CCCCC1)N(C(=O)Cn1ccnc1C)c1cccc(F)c1 [IDH-C35] + COc1cc2c(Oc3ccc(NC(=O)C4(C(=O)Nc5ccc(F)cc5)CC4)cc3F)ccnc2cc1OCCCN1CCOCC1 [Foretinib] (partner 0.25 µM)
How it was run: (§1)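 Relative viability is defined as nuclei in treated wells over nuclei in vehicle wells. Duplicate plates were run and medians reported. Lung cancer cell lines in 1536-well plates were dosed by pin tool one day after seeding, with one drug or with a fixed anchor-drug dose plus five library-drug doses (not always all listed) in √10 steps, and nuclei were counted after 5 days.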

IDH-C35 + Trametinib = compound: Cc1ccccc1C(C(=O)NC1CCCCC1)N(C(=O)Cn1ccnc1C)c1cccc(F)c1 [IDH-C35] + CC(=O)Nc1cccc(-n2c(=O)n(C3CC3)c(=O)c3c(Nc4ccc(I)cc4F)n(C)c(=O)c(C)c32)c1 [Trametinib] (partner 0.02 µM)
How it was run: as §1

[1] = compound: CC1=C(C(=NN1)C)CC2=C(C3=C(S2)N(C(=O)N(C3=O)C)CC(C)C)C(=O)N4C[C@@H](CO4)O + CC(C)C[C@H](NC(=O)[C@H](Cc1ccccc1)NC(=O)c1cnccn1)B(O)O [Bortezomib] (partner 0.002 µM)
How it was run: as §1

[2] = compound: CC1=C(C(=NN1)C)CC2=C(C3=C(S2)N(C(=O)N(C3=O)C)CC(C)C)C(=O)N4C[C@@H](CO4)O + Cc1nc(Nc2ncc(C(=O)Nc3c(C)cccc3Cl)s2)cc(N2CCN(CCO)CC2)n1 [Dasatinib] (partner 0.075 µM)
How it was run: as §1

Cell Line	relative viability (IDH-C35 + Foretinib; first compound 0.08 µM)	relative viability (IDH-C35 + Foretinib; first compound 0.253 µM)	relative viability (IDH-C35 + Foretinib; first compound 0.8 µM)	relative viability (IDH-C35 + Foretinib; first compound 2.53 µM)	relative viability (IDH-C35 + Foretinib; first compound 8 µM)	relative viability (IDH-C35 + Trametinib; first compound 0.08 µM)	relative viability (IDH-C35 + Trametinib; first compound 0.253 µM)	relative viability (IDH-C35 + Trametinib; first compound 0.8 µM)	relative viability (IDH-C35 + Trametinib; first compound 2.53 µM)	relative viability (IDH-C35 + Trametinib; first compound 8 µM)	relative viability ([1]; first compound 0.0025 µM)	relative viability ([1]; first compound 0.007906 µM)	relative viability ([1]; first compound 0.025 µM)	relative viability ([1]; first compound 0.07906 µM)	relative viability ([1]; first compound 0.25 µM)	relative viability ([2]; first compound 0.0025 µM)	relative viability ([2]; first compound 0.007906 µM)	relative viability ([2]; first compound 0.025 µM)	relative viability ([2]; first compound 0.07906 µM)	relative viability ([2]; first compound 0.25 µM)
NCI-H838	1.07	0.991	0.95	0.998	1.03	0.579	0.505	0.508	0.507	0.503	0.88	1.13	0.786	0.738	0.929	0.347	0.322	0.276	0.197	0.304
NCI-H1755	0.951	0.921	0.874	0.95	0.933	0.754	0.735	0.762	0.73	0.675	1.01	0.875	0.962	0.963	1.13	0.497	0.343	0.456	0.359	0.417
HCC-78	0.586	0.57	0.563	0.555	0.525	0.757	0.869	0.777	0.713	0.761	0.526	0.614	0.535	0.543	0.413	0.392	0.486	0.374	0.366	0.236
IA-LM	1.06	1.24	1.12	1.12	1.1	–	–	–	–	–	0.923	0.652	0.815	1	0.883	–	–	–	–	–
NCI-H322M	0.93	0.886	0.945	0.916	0.983	0.451	0.485	0.55	0.488	0.507	1.34	1.19	1.33	1.23	1.19	0.257	0.254	0.271	0.201	0.245
NCI-H3122	0.919	0.984	0.915	0.928	0.958	0.22	0.249	0.21	0.236	0.212	0.963	0.978	1	0.99	1.02	0.988	1.03	0.663	0.775	0.889
COR-L23	0.969	0.95	0.891	1.01	1.03	0.599	0.639	0.591	0.565	0.54	1.07	0.895	0.888	0.754	0.865	0.561	0.533	0.427	0.375	0.449
NCI-H1793	0.753	0.81	0.724	–	0.624	0.42	0.45	0.374	0.472	0.401	–	–	–	–	–	0.428	0.375	0.39	0.362	0.377
NCI-H1792	–	–	–	–	–	0.393	0.338	0.485	0.405	0.544	0.94	1.01	0.861	0.878	0.786	0.836	0.947	0.813	0.569	0.687
NCI-H522	–	–	–	–	–	0.767	0.8	0.643	0.796	0.695	–	–	–	–	–	0.971	0.97	0.763	0.649	0.662
NCI-H1299	1.1	1.07	1.01	1.06	1.09	–	–	–	–	–	1.03	0.946	0.975	1.01	1.01	–	–	–	–	–
NCI-H1648	–	–	–	–	–	–	0.566	0.465	0.479	0.584	–	–	–	–	–	–	–	–	–	–
SK-MES-1	0.983	0.955	0.897	0.971	0.756	0.513	0.6	0.581	0.567	0.45	–	–	–	–	–	0.389	0.367	0.371	0.337	0.314
NCI-H2342	0.969	1.02	1.17	1.16	1.01	0.771	0.762	0.769	0.767	0.736	–	–	–	–	–	0.297	0.348	0.283	0.322	0.352
SW 900	0.729	0.909	0.877	0.6	0.926	0.855	0.773	–	0.91	0.767	–	–	–	–	–	0.768	0.696	0.614	0.476	0.559
LK-2	1.23	1.36	1.27	1.12	1.48	0.719	0.762	0.735	0.779	0.745	–	–	–	–	–	0.231	0.296	0.308	0.253	0.275
NCI-H1395	0.972	0.976	1.07	0.896	0.971	1.12	1.05	1.05	0.903	0.919	–	–	–	–	–	0.412	0.412	0.352	0.32	0.335
A549	0.881	0.863	0.968	1.05	0.835	–	–	–	–	–	–	–	–	–	–	–	–	–	–	–
NCI-H2170	0.98	0.97	1.1	0.937	0.951	0.855	0.864	0.882	0.85	0.93	–	–	–	–	–	0.56	0.592	0.589	0.412	0.552
NCI-H1563	1.01	1.01	0.872	0.907	0.774	–	–	–	–	–	0.943	0.938	0.938	0.811	0.818	0.503	0.439	0.418	0.404	0.491
ABC-1	1.16	0.967	0.918	1.08	1.21	–	–	–	–	–	0.342	0.304	0.304	0.394	0.335	–	0.346	–	0.453	0.517
